Results on 21 compounds are retold here after article PMC2865783, “Synthesis, Antiinflammatory and HIV-1 Integrase Inhibitory Activities of 1,2-Bis[5-thiazolyl]ethane-1,2-dione Derivatives” (Indian Journal of Pharmaceutical Sciences, 2009).

Where two headings read alike, the source gives them in different places.

Data set [1] has as its system carrageenan-induced rat-paw edema. The data set can be described thus: carrageenan-induced rat paw edema method. The class given is in vivo. Particulars: for antiinflammatory activity (in words): carrageenan-induced rat paw edema, 100 mg/kg; for % PROTECTION: Table 3, all compounds screened at 100 mg/kg body weight. Here is the method:
(§1) Phenyl isothiocyanate was procured from Lancaster. Methyl isothiocyanate was gift sample from Hitesh Chemicals and Drugs Pvt Ltd, Hyderabad, India. Benzoylisothiocyanate, methoxycarbonyl isothiocyanate, ethoxy carbonyl isothiocyanate, N,N-diethyl actamidine, N,N-diethyl benzamidine, N,N-diethylphenyl acetamidine and 1,4-dibromo butane 2,3-dione were prepared in our lab following the reported procedures. Carrageenin was procured from Spectrochem India limited. HIV-1 integrase assay was done at Department of Pharmaceutical Sciences, School of Pharmacy, University of Southern California, Los Angeles, USA[18]. The reported protocol was followed for carrageenin-induced rat paw edema method[19] for evaluation of antiinflammatory activity. All compounds were screened in a group of 6 animals at dose of 100 mg/kg body weight of the animal. The experimental protocol was approved by the institutional animal ethics committee, constituted as per CPCSEA, Government of India.
In general terms: Carrageenan injected into the paw causes an acute inflammation.

A further data set has as its target T1, HIV-1 integrase (Human immunodeficiency virus type 1 group M subtype B, UniProt P12497).
T1 construct: […]; AS MEASURED IN AN EXT[…]-1 INTEGRASE ASSAY
The data set can be described thus: extracellular HIV-1 integrase assay (3'-processing and strand transfer). In kind it is biochemical.
Excerpt: Integrase (IN) has emerged as an attractive target, because it is necessary for stable infection and homologous enzymes are lacking in the human host[11]. The function of IN is to catalyze integration of proviral DNA, resulting from the reverse transcription of viral RNA, into the host genome. This is achieved in a stepwise fashion by endonucleolytic processing of proviral DNA within a cytoplasmic preintegration complex (termed 3' P-processing or “3'-P”), followed by translocation of the complex into the nuclear compartment where integration of 3'-processed proviral DNA into host DNA occurs in a “strand transfer” (ST) reaction. […] (fig. 1B)[1112]. The presence of diketo pharmacophore in the synthesized compounds made us to screen these compounds in a HIV-1 integrase inhibitory assay.
as §1

For data set [2], the system named is TNF-α release from human peripheral blood mononuclear cells. Description: TNF-α release from human peripheral blood mononuclear cells. In kind it is cell-based.
For a further data set, the target named is T2, cPLA2 (Homo sapiens, UniProt P47712).
T2 sequence (P47712 1-749): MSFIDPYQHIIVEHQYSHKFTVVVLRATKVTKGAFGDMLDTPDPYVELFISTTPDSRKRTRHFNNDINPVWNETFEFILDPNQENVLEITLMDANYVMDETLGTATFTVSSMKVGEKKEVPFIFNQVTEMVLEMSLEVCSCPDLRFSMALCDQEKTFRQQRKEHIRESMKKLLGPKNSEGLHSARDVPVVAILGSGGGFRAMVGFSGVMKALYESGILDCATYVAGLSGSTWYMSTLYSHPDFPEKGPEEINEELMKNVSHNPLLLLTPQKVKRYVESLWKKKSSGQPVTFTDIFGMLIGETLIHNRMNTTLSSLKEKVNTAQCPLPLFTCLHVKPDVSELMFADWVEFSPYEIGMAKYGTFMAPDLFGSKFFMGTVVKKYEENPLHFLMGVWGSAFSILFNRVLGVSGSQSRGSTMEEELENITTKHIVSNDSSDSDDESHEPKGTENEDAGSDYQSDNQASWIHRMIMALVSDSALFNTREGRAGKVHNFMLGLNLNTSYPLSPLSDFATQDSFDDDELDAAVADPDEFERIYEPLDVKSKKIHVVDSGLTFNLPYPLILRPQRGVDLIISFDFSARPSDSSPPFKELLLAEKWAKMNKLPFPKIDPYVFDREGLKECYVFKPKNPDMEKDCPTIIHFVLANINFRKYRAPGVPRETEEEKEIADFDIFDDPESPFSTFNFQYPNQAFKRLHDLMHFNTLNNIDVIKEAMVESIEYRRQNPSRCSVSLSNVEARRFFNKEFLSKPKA
Description: cPLA2 inhibition. The class given is biochemical.

Setting [3] is: 100 mg/kg b.w, rat paw edema, group of 6 animals, read-out: % PROTECTION Dose 100 mg/kg b.w.
The mark [4] stands for this setting: Rattus norvegicus, 100 mg/kg body weight, read-out: protection in the carrageenan rat paw model.
The mark [5] stands for this setting: 3'-processing step, read-out: 3'P inhibitory potency.
The mark [6] stands for this setting: strand transfer step, read-out: ST inhibitory potency.
Setting [7] is: rat paw edema, group of 6 animals.

Consider `O=C(Nc1nc(-c2ccccc2)c(C(=O)C(=O)c2sc(NC(=O)c3ccccc3)nc2-c2ccccc2)s1)c1ccccc1` [G-6], for which the melting point (usually the temperature of the solid-liquid transition) fell in the range of 234 to 236 °C. The inhibition in vivo at 100 mg/kg in data set [1] (setting [3]) came out at 74 ± 0.5%. Moreover, in data set [1] (setting [4]), the inhibition in vivo at 100 mg/kg is above 50%. Besides, the IC50 on HIV-1 integrase (setting [5]) is above 500 µM. Moreover, on HIV-1 integrase (setting [6]), the IC50 is 277 µM. For the same compound, the “effect on TNF-α release” value in data set [2] is “did not have any effect”. The “cPLA2 inhibition (in words)” value at cPLA2 is given as “weakly inhibited”.
For the compound `COC(=O)Nc1nc(Cc2ccccc2)c(C(=O)C(=O)c2sc(NC(=O)OC)nc2Cc2ccccc2)s1` [G-13], the inhibition in vivo at 100 mg/kg in data set [1] (setting [3]) was 35 ± 2.5%.
For `O=C(C(=O)c1sc(Nc2ccc(Cl)cc2)nc1Cc1ccccc1)c1sc(Nc2ccc(Cl)cc2)nc1Cc1ccccc1` [G-12], the inhibition in vivo at 100 mg/kg was 72 ± 1% in data set [1] (setting [3]) and above 50% in data set [1] (setting [4]). Also, in data set [1], the “antiinflammatory activity (in words)” value is given as “good antiinflammatory activity”.
As to `O=C(C(=O)c1sc(Nc2ccccc2)nc1-c1ccccc1)c1sc(Nc2ccccc2)nc1-c1ccccc1` [G-7], the inhibition in vivo at 100 mg/kg was 70 ± 0.7% in data set [1] (setting [3]) and above 50% in data set [1] (setting [4]). Moreover, the “antiinflammatory activity (in words)” value in data set [1] is “good antiinflammatory activity”.
For the compound `O=C(C(=O)c1sc(N2CCN(c3ccccc3)CC2)nc1-c1ccccc1)c1sc(N2CCN(c3ccccc3)CC2)nc1-c1ccccc1` [G-20], the inhibition in vivo at 100 mg/kg in data set [1] (setting [4]) is above 50%. Moreover, in data set [1] (setting [7]), the “% PROTECTION” value worked out at 55±4%. The IC50 amounted to 122 µM on HIV-1 integrase (setting [5]) and 87 µM on HIV-1 integrase (setting [6]).
Consider `O=C(C(=O)c1sc(Nc2ccccc2)nc1Cc1ccccc1)c1sc(Nc2ccccc2)nc1Cc1ccccc1` [G-11], for which the inhibition in vivo at 100 mg/kg in data set [1] (setting [3]) stood at 23 ± 2%.
Same read-out and setting: in the case of `CNc1nc(C)c(C(=O)C(=O)c2sc(NC)nc2C)s1` [G-1] it was 14 ± 7%.
The same measure, in the same setting: under `COC(=O)Nc1nc(C)c(C(=O)C(=O)c2sc(NC(=O)OC)nc2C)s1` [G-4] stands 40 ± 2%; under `O=C(Nc1nc(Cc2ccccc2)c(C(=O)C(=O)c2sc(NC(=O)c3ccccc3)nc2Cc2ccccc2)s1)c1ccccc1` [G-15], 47 ± 2.3%.
As for `CN1CCN(c2nc(-c3ccccc3)c(C(=O)C(=O)c3sc(N4CCN(C)CC4)nc3-c3ccccc3)s2)CC1` [G-18], in data set [1] (setting [4]), the inhibition in vivo at 100 mg/kg is above 50%. Further, the “% PROTECTION” value in data set [1] (setting [7]) was 60±0.5%.
Take `Cc1nc(Nc2ccc(Cl)cc2)sc1C(=O)C(=O)c1sc(Nc2ccc(Cl)cc2)nc1C` [G-3]: in data set [1] (setting [3]), the inhibition in vivo at 100 mg/kg was found to be 73 ± 0.3%. The IC50 on HIV-1 integrase (setting [5]) stood at 132 µM; on HIV-1 integrase (setting [6]) it was 397 µM.
Regarding `CCOC(=O)Nc1nc(Cc2ccccc2)c(C(=O)C(=O)c2sc(NC(=O)OCC)nc2Cc2ccccc2)s1` [G-14], the inhibition in vivo at 100 mg/kg in data set [1] (setting [3]) worked out at 38 ± 2%.
On to `Cc1nc(Nc2ccccc2)sc1C(=O)C(=O)c1sc(Nc2ccccc2)nc1C` [G-2], for which the inhibition in vivo at 100 mg/kg in data set [1] (setting [3]) was 23 ± 8%.
The same measure, in the same setting: in the case of `CCOC(=O)Nc1nc(-c2ccccc2)c(C(=O)C(=O)c2sc(NC(=O)OCC)nc2-c2ccccc2)s1` [G-10] it was 34 ± 4%.
For `O=C(C(=O)c1sc(N2CCCCC2)nc1-c1ccccc1)c1sc(N2CCCCC2)nc1-c1ccccc1` [G-16], the inhibition in vivo at 100 mg/kg in data set [1] (setting [4]) was above 50%. Besides, the “% PROTECTION” value in data set [1] (setting [7]) amounted to 65±0.8%.
With `CCOC(=O)Nc1nc(C)c(C(=O)C(=O)c2sc(NC(=O)OCC)nc2C)s1` [G-5], the inhibition in vivo at 100 mg/kg in data set [1] (setting [3]) amounted to 33 ± 0.9%.
As for `O=C(C(=O)c1sc(N2CCOCC2)nc1-c1ccccc1)c1sc(N2CCOCC2)nc1-c1ccccc1` [G-17], in data set [1] (setting [4]), the inhibition in vivo at 100 mg/kg was above 50%. Moreover, the “% PROTECTION” value in data set [1] (setting [7]) was 81±0.5%. Also, the IC50 on HIV-1 integrase (setting [5]) is above 500 µM; at HIV-1 integrase (setting [6]), 109 µM. The “effect on TNF-α release” value in data set [2] is “did not have any effect”.
`COC(=O)Nc1nc(-c2ccccc2)c(C(=O)C(=O)c2sc(NC(=O)OC)nc2-c2ccccc2)s1` [G-9]: in data set [1] (setting [3]), the inhibition in vivo at 100 mg/kg worked out at 26 ± 3%.
In the case of `O=C(C(=O)c1sc(N2CCN(Cc3ccccc3)CC2)nc1-c1ccccc1)c1sc(N2CCN(Cc3ccccc3)CC2)nc1-c1ccccc1` [G-21], the inhibition in vivo at 100 mg/kg in data set [1] (setting [4]) was above 50%. In addition, the “% PROTECTION” value in data set [1] (setting [7]) was 85±0.3%.
For the compound `O=C(C(=O)c1sc(Nc2ccc(Cl)cc2)nc1-c1ccccc1)c1sc(Nc2ccc(Cl)cc2)nc1-c1ccccc1` [G-8], the inhibition in vivo at 100 mg/kg in data set [1] (setting [3]) is 66 ± 1%; in data set [1] (setting [4]), above 50%.
`CCN1CCN(c2nc(-c3ccccc3)c(C(=O)C(=O)c3sc(N4CCN(CC)CC4)nc3-c3ccccc3)s2)CC1` [G-19]: the inhibition in vivo at 100 mg/kg in data set [1] (setting [4]) was above 50%. Moreover, the “% PROTECTION” value in data set [1] (setting [7]) worked out at 72±0.5%. Also, in data set [2], the “effect on TNF-α release” value is “did not have any effect”.
